Reference: publication PMC6204753, “Non-native autoinducer analogs capable of modulating the SdiA quorum sensing receptor in Salmonella enterica serovar Typhimurium” (Beilstein Journal of Organic Chemistry, 2018)
Where two headings read alike, the source gives them in different places. Marks after values point to notes of the source that are not given here.

How the values were obtained:
[1] = molecular target: T1, SdiA (Salmonella enterica subsp. enterica serovar Typhimurium, UniProt O66040); experiment: S. Typhimurium-pJNS25 SdiA reporter, agonism (luminescence); type: cell-based; settings: for Emax: read-out: activation (%); for EC50: agonism dose–response
T1 sequence (O66040 entry or part of it): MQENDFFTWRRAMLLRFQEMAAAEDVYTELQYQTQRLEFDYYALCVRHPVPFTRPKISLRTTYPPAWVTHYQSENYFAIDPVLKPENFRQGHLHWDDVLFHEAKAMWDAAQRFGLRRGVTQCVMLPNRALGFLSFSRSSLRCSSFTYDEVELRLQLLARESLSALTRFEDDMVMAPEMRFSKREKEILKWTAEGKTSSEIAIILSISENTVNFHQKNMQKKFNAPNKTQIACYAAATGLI
Source text: Biological assays for SdiA activity. Cell-based reporter strains that rely on detecting the transcriptional activity of LuxR-type receptors are commonly used to assess the activity of exogenous ligands. We used the S. Typhimurium-pJNS25 reporter strain constructed by Smith and Ahmer and also used by Janssens et al. to examine SdiA activity. This strain naturally produces SdiA and contains a reporter plasmid with the promoter region for srgE fused to the luxABCDE operon of V. fischeri (see Experimental section for details of all strains and plasmids). SdiA activity is thus reported by the production of luciferase and resulting bioluminescence. We also prepared an SdiA reporter in E. coli (JLD271-pJN105SE-pSC11SE) to examine S. Typhimurium SdiA activity in an alternate background and with a different reporter gene output. […] This reporter construct uses an arabinose inducible promoter to produce S. Typhimurium SdiA and the promoter region for srgE fused to lacZ to report SdiA activity. SdiA activity is then measured using standard β-galactosidase assays. In both reporter strains, signal was normalized to the difference between the positive control (10 μM OOHL) and the negative control (1% DMSO; no compound).
Salmonella SdiA reporter assay. S. Typhimurium-pJNS25 was grown 16–18 h overnight in LB, diluted 1:100 in fresh LB medium, and then incubated for 6 h at 37 °C with shaking at 200 rpm in the presence of compounds (1% DMSO). […] All compounds were screened at 100 μM and 1 μM in triplicate in agonism and antagonism assays. […] Dose–response analyses were performed by preparing dilutions of compounds in DMSO and testing each concentration in the agonism or antagonism assays. Competition dose–response assays (data in Figure 5) were performed in the same manner as the antagonism assays, except instead of OOHL being added to the subculture, the antagonist being tested was added. Non-linear regression curve fits were generated using GraphPad Prism software (version 6) using variable slope (four parameter) dose–response analysis.

[2] = molecular target: T1, SdiA; experiment: S. Typhimurium-pJNS25 SdiA reporter, competitive antagonism against 10 nM L-OOHL; type: cell-based; settings: for inhibition at 1 µM: 1 μM compound, read-out: Antagonism 1 μM Inhibition (%); for inhibition at 1 µM / inhibition at 100 µM: average ± STD, change in activity from 10 nM 2 (OOHL); for inhibition at 100 µM: 100 μM compound, read-out: Antagonism 100 μM Inhibition (%); for Emax: maximal inhibition, 100% minus lowest % activity in presence of 10 nM L-OOHL (2), read-out: inhibition (%); for IC50: against 10 nM L-OOHL (EC90)
In short: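 S. Typhimurium-pJNS25 (native SdiA, srgE promoter–luxCDABE) subcultured 1:100 in LB and incubated 6 h at 37 °C, 200 rpm, with compound (1% DMSO); antagonism run against 10 nM L-OOHL. Luminescence normalised between 10 μM OOHL and 1% DMSO controls; triplicates; four-parameter dose–response fits.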

[3] = molecular target: T1, SdiA; set-up: method as in PMID 17085703; settings: racemates; cited from earlier work
[4] = maximal activation of the antagonists (partial agonism), Table 3
[5] = maximal activity (efficacy) from agonism dose–response, 10 μM OOHL = 100%, DMSO = 0%

CCOC(=O)CNC(=O)Cc1ccc(OC)cc1 [F47]
Emax [1, 4]: 61%
inhibition at 1 µM [2]: 3 ± 14%
inhibition at 100 µM [2]: 36 ± 10%
Emax [2]: 42%

O=C(CC1CCCCC1)N[C@H]1CCOC1=O [S7]
EC50 ([1]; read-out: EC50): 106 nM
Emax [1, 5]: 89%
inhibition at 1 µM [2]: 7 ± 14%
inhibition at 100 µM [2]: 1 ± 7%

CCOC(=O)CNC(=O)Cc1ccc(Br)cc1 [F39]
Emax [1, 4]: 50%
inhibition at 1 µM [2]: 27 ± 9%
inhibition at 100 µM [2]: 53 ± 11%
Emax [2]: 55%

CCCC(=O)CC(=O)NC1CCOC1=O (racemic) [DL-OHHL (3-oxo-C6)]
EC50 [3]: 5 nM

O=C(COc1ccc(I)cc1)N[C@H]1CCSC1=O [RN22]
EC50 ([1]; read-out: EC50): 6.08 nM
Emax [1, 5]: 93%
fold increase ([1]; potency of thiolactone over corresponding lactone (EC50 ratio)): 1.71^c
inhibition at 1 µM [2]: -4 ± 9%
inhibition at 100 µM [2]: 3 ± 9%

O=C(Oc1c(Br)cc(Br)cc1CNC(=O)c1ccccc1[N+](=O)[O-])c1ccccc1Cl [19R, reference compound]
Emax [1, 4]: 40%
inhibition at 1 µM [2]: 43 ± 10%
inhibition at 100 µM [2]: 38 ± 11%
Emax [2]: 44%

CCCCCCCCCCOc1ccc(C(=O)N[C@H]2CCOC2=O)cc1 [R7]
Emax [1, 4]: 6%
inhibition at 1 µM [2]: 8 ± 6%
inhibition at 100 µM [2]: 43 ± 15%
IC50 [2]: 3100 nM
Emax [2]: 51%

O=C(CCc1cccc(I)c1)N[C@H]1CCOC1=O [E33]
Emax [1, 4]: 67%
inhibition at 1 µM [2]: 20 ± 6%
inhibition at 100 µM [2]: 38 ± 10%
IC50 [2]: 9640 nM
Emax [2]: 19%

O=C(Cc1cccc(Br)c1)N[C@H]1CCOC1=O [C8]
EC50 ([1]; read-out: EC50): 19.1 nM
Emax [1, 5]: 96%
inhibition at 1 µM [2]: 21 ± 10%
inhibition at 100 µM [2]: -22 ± 9%

[N-]=[N+]=NCCCCCCCCCCCC(=O)N[C@H]1CCOC1=O [Az-11]
EC50 [1]: 125 nM
activation (%) [1, 5]: fully agonize
Emax [1]: 110%
inhibition at 1 µM [2]: -1 ± 17%
inhibition at 100 µM [2]: -35 ± 6%

CCOC(=O)CNC(=O)Cc1cccc([N+](=O)[O-])c1 [F40]
Emax [1, 4]: 56%
inhibition at 1 µM [2]: 21 ± 8%
inhibition at 100 µM [2]: 43 ± 4%
IC50 [2]: 27800 nM
Emax [2]: 33%
